# In ChEMBL document CHEMBL1201862, “PubChem BioAssay data set” (2004):
# Active and inactive are the calls of the source. Cut-off read from the data, not from the text of the source, for most assays here: actives have a measured AC50 and inactives only a lower limit.
# Tests used:
# [1] = test system: Streptococcus; assay: Group A Streptococcus viability loss, dose response, counter-screen for streptokinase expression inhibitor project, luminescence, BacTiterGlo (AID 1915); format: functional, organism-based;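 note: potency for reduction of bacterial viability or growth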
# [2] = biological target: T1, Histone-lysine N-methyltransferase NSD2 (Homo sapiens, UniProt O96028); format: biochemical
# T1 sequence (O96028 whole entry): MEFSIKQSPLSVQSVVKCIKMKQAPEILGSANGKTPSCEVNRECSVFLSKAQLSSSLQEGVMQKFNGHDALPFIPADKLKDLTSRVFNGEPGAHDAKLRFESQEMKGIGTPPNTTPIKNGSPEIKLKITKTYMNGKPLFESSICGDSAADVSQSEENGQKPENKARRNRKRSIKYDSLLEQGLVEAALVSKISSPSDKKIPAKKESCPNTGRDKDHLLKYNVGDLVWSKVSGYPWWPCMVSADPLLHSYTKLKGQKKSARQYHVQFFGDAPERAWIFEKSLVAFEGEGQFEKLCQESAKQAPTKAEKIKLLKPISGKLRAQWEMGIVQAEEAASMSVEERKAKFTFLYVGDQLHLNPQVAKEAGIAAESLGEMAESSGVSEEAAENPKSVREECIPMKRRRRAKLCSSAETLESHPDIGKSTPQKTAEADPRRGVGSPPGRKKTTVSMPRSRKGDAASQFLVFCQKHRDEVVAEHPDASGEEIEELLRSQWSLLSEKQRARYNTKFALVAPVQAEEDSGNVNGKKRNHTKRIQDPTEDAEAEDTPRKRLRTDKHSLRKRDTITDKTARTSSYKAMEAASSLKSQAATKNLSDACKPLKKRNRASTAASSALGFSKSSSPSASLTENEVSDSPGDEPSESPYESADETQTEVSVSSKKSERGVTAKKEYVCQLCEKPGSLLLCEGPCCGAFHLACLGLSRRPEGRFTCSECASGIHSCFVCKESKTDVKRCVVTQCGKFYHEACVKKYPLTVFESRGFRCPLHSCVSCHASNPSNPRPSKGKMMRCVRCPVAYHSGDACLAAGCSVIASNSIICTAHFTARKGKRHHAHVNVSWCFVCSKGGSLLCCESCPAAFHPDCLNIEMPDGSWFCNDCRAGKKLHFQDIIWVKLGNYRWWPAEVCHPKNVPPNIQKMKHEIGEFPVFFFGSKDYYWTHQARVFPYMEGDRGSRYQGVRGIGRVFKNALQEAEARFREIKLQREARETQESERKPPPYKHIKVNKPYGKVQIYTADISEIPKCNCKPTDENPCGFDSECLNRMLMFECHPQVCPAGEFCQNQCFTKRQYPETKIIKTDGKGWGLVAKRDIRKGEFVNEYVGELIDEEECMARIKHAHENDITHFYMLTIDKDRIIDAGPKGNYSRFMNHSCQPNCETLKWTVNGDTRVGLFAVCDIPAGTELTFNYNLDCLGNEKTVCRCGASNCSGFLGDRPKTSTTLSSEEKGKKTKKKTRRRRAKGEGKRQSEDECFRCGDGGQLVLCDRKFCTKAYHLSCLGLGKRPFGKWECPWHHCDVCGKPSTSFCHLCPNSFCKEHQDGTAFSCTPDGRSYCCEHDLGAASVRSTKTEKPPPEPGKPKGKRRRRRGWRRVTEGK
# [3] = biological target: T2, Replicative DNA helicase DnaB (Mycobacterium tuberculosis, UniProt P9WMR3); assay: DnaB intein splicing inhibitors, dose response, biochemical, cell-free fluorescence (AID 449749); format: functional
# T2 sequence (P9WMR3 whole entry): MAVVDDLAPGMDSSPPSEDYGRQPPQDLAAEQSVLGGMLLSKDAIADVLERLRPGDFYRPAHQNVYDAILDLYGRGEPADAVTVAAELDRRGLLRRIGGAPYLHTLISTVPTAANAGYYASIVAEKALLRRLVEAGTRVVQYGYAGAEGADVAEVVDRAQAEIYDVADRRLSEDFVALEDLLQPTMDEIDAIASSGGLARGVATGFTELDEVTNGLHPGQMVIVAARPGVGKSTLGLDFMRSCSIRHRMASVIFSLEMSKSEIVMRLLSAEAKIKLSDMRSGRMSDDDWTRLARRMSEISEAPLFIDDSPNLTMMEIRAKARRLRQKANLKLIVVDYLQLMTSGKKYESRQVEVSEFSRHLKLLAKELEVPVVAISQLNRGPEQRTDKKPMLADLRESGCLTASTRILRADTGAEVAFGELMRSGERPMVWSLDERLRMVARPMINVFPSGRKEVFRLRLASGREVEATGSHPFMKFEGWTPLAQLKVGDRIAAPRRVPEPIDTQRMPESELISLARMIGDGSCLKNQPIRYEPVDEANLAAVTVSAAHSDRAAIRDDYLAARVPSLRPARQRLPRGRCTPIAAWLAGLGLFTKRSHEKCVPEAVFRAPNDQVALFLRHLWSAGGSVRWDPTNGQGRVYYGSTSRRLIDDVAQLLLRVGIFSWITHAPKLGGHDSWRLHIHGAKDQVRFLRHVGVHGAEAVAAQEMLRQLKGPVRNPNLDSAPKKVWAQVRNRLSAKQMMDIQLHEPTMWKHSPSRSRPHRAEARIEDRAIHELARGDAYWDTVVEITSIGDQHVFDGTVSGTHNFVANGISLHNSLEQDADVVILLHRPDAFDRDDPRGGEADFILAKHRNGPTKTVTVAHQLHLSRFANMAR
Compound,EC50 [1],AC50 [2],AC50 [3]
O=C(Nc1cccc(NC(=O)c2ccccc2Cl)c1)c1ccc([N+](=O)[O-])o1,20.4 µM (inconclusive),–,–
COc1ccc(CC2=CC(=O)c3ccccc3C2=O)cc1,9.74 µM (active),10.5 µM (active),7.49 µM (active)
c1coc(-c2nnc(-c3ccco3)nn2)c1,–,5.23 µM (active),5.79 µM (active)
